According to the supplement of paper PMC10307832:

Key:
Test in all cases: relative viability (nuclei count vs DMSO), 5 days (fraction); higher = more cells survive
VE-821 + Bortezomib = compound: CS(=O)(=O)c1ccc(-c2cnc(N)c(C(=O)Nc3ccccc3)n2)cc1 [VE-821] + CC(C)C[C@H](NC(=O)[C@H](Cc1ccccc1)NC(=O)c1cnccn1)B(O)O [Bortezomib] (partner 0.002 µM)
In short: (§1)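 Lung cancer cell lines in 1536-well plates were dosed by pin tool the day after seeding, either with one drug alone or with a fixed anchor-drug dose plus five library-drug doses (not always all listed) in √10 steps. After 5 days, cells were fixed and their nuclei stained in one step (final 0.05% Triton X-100, 1% formaldehyde, 1 ug/ml Hoechst), then counted on 4× images. Relative viability is the nuclei count in treated wells divided by that in vehicle wells. Values are medians of duplicate plates.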

VE-821 + Luminespib = compound: CS(=O)(=O)c1ccc(-c2cnc(N)c(C(=O)Nc3ccccc3)n2)cc1 [VE-821] + CCNC(=O)c1noc(-c2cc(C(C)C)c(O)cc2O)c1-c1ccc(CN2CCOCC2)cc1 [Luminespib] (partner 0.01 µM)
In short: as §1

VE-821 + Pictilisib = compound: CS(=O)(=O)c1ccc(-c2cnc(N)c(C(=O)Nc3ccccc3)n2)cc1 [VE-821] + CS(=O)(=O)N1CCN(Cc2cc3nc(-c4cccc5[nH]ncc45)nc(N4CCOCC4)c3s2)CC1 [Pictilisib] (partner 1 µM)
In short: as §1

Ruxolitinib + Trametinib = compound: N#CC[C@H](C1CCCC1)n1cc(-c2ncnc3[nH]ccc23)cn1 [Ruxolitinib] + CC(=O)Nc1cccc(-n2c(=O)n(C3CC3)c(=O)c3c(Nc4ccc(I)cc4F)n(C)c(=O)c(C)c32)c1 [Trametinib] (partner 0.02 µM)
In short: as §1

Cell Line | relative viability (VE-821 + Bortezomib; first compound 0.08 µM) | relative viability (VE-821 + Bortezomib; first compound 0.253 µM) | relative viability (VE-821 + Bortezomib; first compound 0.8 µM) | relative viability (VE-821 + Bortezomib; first compound 2.53 µM) | relative viability (VE-821 + Bortezomib; first compound 8 µM) | relative viability (VE-821 + Luminespib; first compound 0.08 µM) | relative viability (VE-821 + Luminespib; first compound 0.253 µM) | relative viability (VE-821 + Luminespib; first compound 0.8 µM) | relative viability (VE-821 + Luminespib; first compound 2.53 µM) | relative viability (VE-821 + Luminespib; first compound 8 µM) | relative viability (VE-821 + Pictilisib; first compound 0.08 µM) | relative viability (VE-821 + Pictilisib; first compound 0.253 µM) | relative viability (VE-821 + Pictilisib; first compound 0.8 µM) | relative viability (VE-821 + Pictilisib; first compound 2.53 µM) | relative viability (VE-821 + Pictilisib; first compound 8 µM) | relative viability (Ruxolitinib + Trametinib; first compound 0.08 µM) | relative viability (Ruxolitinib + Trametinib; first compound 0.253 µM) | relative viability (Ruxolitinib + Trametinib; first compound 0.8 µM) | relative viability (Ruxolitinib + Trametinib; first compound 2.53 µM) | relative viability (Ruxolitinib + Trametinib; first compound 8 µM)
NCI-H1650 | 0.194 | 0.195 | 0.339 | 0.187 | 0.213 | 0.204 | 0.19 | 0.25 | 0.211 | 0.172 | 0.677 | 0.506 | 0.57 | 0.638 | 0.499 | 0.331 | 0.597 | 0.628 | 0.27 | 0.541
COR-L 105 | 0.746 | 0.841 | 0.677 | 0.738 | 0.467 | 0.692 | 0.771 | 0.51 | 0.632 | 0.524 | 0.46 | 0.392 | 0.402 | 0.405 | 0.38 | – | 0.472 | 0.424 | 0.381 | 0.432
COR-L23 | 1.1 | 0.997 | 1.06 | 1 | 1.06 | 0.835 | 0.651 | 0.633 | 0.342 | 0.446 | 1.17 | 0.654 | 0.961 | 0.981 | 0.682 | 0.766 | 0.616 | 0.878 | 0.276 | 0.508
NCI-H596 | 1.21 | 1.02 | 1.08 | 1.09 | 1.09 | 0.978 | 1.09 | 1 | 1.03 | 0.738 | 0.416 | 0.4 | 0.431 | 0.431 | 0.385 | 0.741 | 0.702 | 0.928 | 0.763 | 0.789
NCI-H322M | 1.24 | – | 1.33 | 1.25 | 1.08 | 0.958 | 0.87 | 0.632 | 0.4 | 0.266 | 0.549 | – | 0.49 | 0.608 | 0.422 | 0.523 | 0.628 | 0.514 | 0.609 | 0.893
H3255 | 0.799 | 0.882 | 0.813 | 0.853 | 0.906 | 0.903 | 0.782 | 0.78 | 0.915 | 0.973 | 0.583 | 0.553 | 0.549 | 0.454 | 0.568 | – | 0.548 | 0.725 | 0.465 | 0.648
PC-14 | 1.02 | 0.846 | 0.855 | 0.871 | 0.899 | 0.173 | 0.19 | 0.123 | 0.241 | 0.12 | 0.91 | 0.734 | 0.708 | 0.759 | 0.74 | – | 0.829 | 1.17 | 0.45 | 0.625
A549 | – | – | – | – | – | – | – | – | – | – | 0.616 | 0.481 | 0.531 | 0.468 | 0.229 | – | – | – | – | –
NCI-H2342 | – | – | – | – | – | 0.8 | 0.65 | 0.552 | 0.708 | 0.717 | – | – | – | – | – | 0.762 | 0.872 | 0.808 | 0.807 | 0.816
NCI-H1623 | – | – | – | – | – | 0.588 | 0.473 | 0.605 | 0.509 | 0.505 | – | – | – | – | – | – | – | – | – | –
